In BindingDB's records for doi:10.1074/jbc.271.44.27217 (Yamanouchi Pharmaceutical, 1996):

Target: T1, Neuropeptide Y receptor type 2 (Oryctolagus cuniculus, UniProt B6VRS5)
T1 sequence (B6VRS5 whole entry): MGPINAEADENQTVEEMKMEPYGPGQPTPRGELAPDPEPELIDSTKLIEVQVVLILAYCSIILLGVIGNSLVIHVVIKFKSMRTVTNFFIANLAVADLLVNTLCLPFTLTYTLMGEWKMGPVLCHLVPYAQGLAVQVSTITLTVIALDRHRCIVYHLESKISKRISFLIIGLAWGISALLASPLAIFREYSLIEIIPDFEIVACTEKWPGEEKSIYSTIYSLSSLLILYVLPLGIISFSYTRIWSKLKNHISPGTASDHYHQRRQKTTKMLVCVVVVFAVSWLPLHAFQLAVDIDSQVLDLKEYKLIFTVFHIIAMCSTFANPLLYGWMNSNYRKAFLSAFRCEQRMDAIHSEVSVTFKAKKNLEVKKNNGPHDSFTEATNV

**Q.** Which Ki does the source give for `CC[C@H](C)[C@H](NC(=O)[C@H](Cc1ccc(O)cc1)NC(=O)[C@H](CCCNC(=N)N)NC(=O)[C@H](CCCNC(=N)N)NC(=O)[C@H](CC(C)C)NC(=O)[C@H](CC(=O)O)NC(=O)[C@H](C)NC(=O)[C@H](C)NC(=O)[C@H](Cc1ccc(O)cc1)NC(=O)[C@H](CCC(N)=O)NC(=O)[C@H](C)NC(=O)[C@H](CCSC)NC(=O)[C@H](CCC(N)=O)NC(=O)[C@H](CCC(=O)O)NC(=O)[C@@H]1CCCN1C(=O)[C@@H](NC(=O)[C@H](C)NC(=O)[C@H](CC(N)=O)NC(=O)[C@H](CC(=O)O)NC(=O)CNC(=O)[C@@H]1CCCN1C(=O)[C@H](Cc1ccc(O)cc1)NC(=O)[C@@H](NC(=O)[C@@H]1CCCN1C(=O)[C@H](CCC(=O)O)NC(=O)[C@H](CC(C)C)NC(=O)[C@@H]1CCCN1C(=O)[C@H](C)N)C(C)C)[C@@H](C)O)C(=O)N[C@@H](CC(N)=O)C(=O)N[C@@H](CCSC)C(=O)N[C@@H](CC(C)C)C(=O)N[C@H](C(=O)N[C@@H](CCCNC(=N)N)C(=O)N1CCC[C@H]1C(=O)N[C@@H](CCCNC(=N)N)C(=O)N[C@@H](Cc1ccc(O)cc1)C(N)=O)[C@@H](C)O` [CAS_59763-91-6] here?
**A.** 340 nM
